From patent US10329307B2, “Heterocyclic compounds as inhibitors of platelet aggregation” (UNIVERSITE DE MONTREAL, priority 2015, dated 2019)
pIC50: −log10 of the molar value.

molecular target: PAR4 (Homo sapiens (Human), UniProt Q96RI0); experiment: FLIPR assay in PAR4-expressing HEK293 cells (PAR4 antagonist activity); type: cell-based; conditions: H-Ala-Phe(4-F)-Pro-Gly-Trp-Leu-Val-Lys-Asn-Gly-NH2-induced intracellular calcium mobilization, 11-point curves
Excerpt: The FLIPR assay is an exemplary in vitro assay for measuring the activity of the PAR4 antagonists of the present invention. In this assay, intracellular calcium mobilization is induced in PAR4 expressing cells by a PAR4 agonist and calcium mobilization is monitored. See, e.g., Example A.
HEK293 cells stably expressing PAR4 were generated by a standard method of transfection of human […] cDNA expression vector or by RAGE technology from Athersys Inc. (Cleveland, Ohio) and selected based on PAR4 protein expression of mRNA expression. […] These cells express endogenous PAR1 and can elicit calcium signal upon stimulation with PAR1 agonist peptide. Cells were grown in Dulbecco's Modified Eagle's Medium (DMEM) (Invitrogen, Carlsbad, Calif.), 10% FBS, 1% PSG, 3 μg/ml puromycin and 25 nM Methotrexate) at 37° C. with 5% CO2.
FLIPR-based calcium mobilization assay in HEK293 cells was used to measure PAR4 antagonism, agonism, and selectivity against PAR1. […] Counter screens for agonist activity and PAR1 antagonist activity were also performed. Briefly, PAR1/PAR4-expressing HEK293 cells were grown in DMEM (Life Technology, Grand Island, N.Y.) containing 10% heat-inactivated FBS, 1% Penicillin-Streptomycin, 10 μg/mL blasticidin, and 100 μg/mL Zeocin at 37° C. with 5% CO2. Cells were plated overnight prior to the experiment in a black 384-well Purecoat Amine clear bottom plate (Becton Dickinson Biosciences, San Jose, Calif.) at 10,000 cells/well in 30 μL growth medium and incubated in a humidified chamber at 37° C. with 5% CO2 overnight. Prior to compound addition, the cell medium was replaced with 40 μL of 1× calcium and magnesium-containing Hank's Balanced Saline Solution (HBSS) (with 20 mM HEPES) and 1:1000 diluted fluorescent calcium indicator (Codex Biosolutions, Gaithersburg, Md.). After a 30 minute incubation period at 37° C. and a further 30 minute incubation and equilibration period at room temperature, 20 μL test compound (diluted in 1×HBSS buffer) was added at various concentrations at 0.17% dimethyl sulfoxide (DMSO) final concentration. Changes in fluorescence intensity were measured using a Functional Drug Screening System (FDSS, Hamamatsu, Japan) to determine agonist activities. The cells were then incubated for 30 minutes at room temperature followed by addition of 20 μL of agonist peptide for antagonist activity measurement. […] Compound potency was derived from 11-point concentration-response curves.
As indicated above, the FLIPR assay, an in vitro assay, measures the PAR4 antagonist activity of compounds tested as described in Example A.

Sequence of PAR4 (Q96RI0 18-385): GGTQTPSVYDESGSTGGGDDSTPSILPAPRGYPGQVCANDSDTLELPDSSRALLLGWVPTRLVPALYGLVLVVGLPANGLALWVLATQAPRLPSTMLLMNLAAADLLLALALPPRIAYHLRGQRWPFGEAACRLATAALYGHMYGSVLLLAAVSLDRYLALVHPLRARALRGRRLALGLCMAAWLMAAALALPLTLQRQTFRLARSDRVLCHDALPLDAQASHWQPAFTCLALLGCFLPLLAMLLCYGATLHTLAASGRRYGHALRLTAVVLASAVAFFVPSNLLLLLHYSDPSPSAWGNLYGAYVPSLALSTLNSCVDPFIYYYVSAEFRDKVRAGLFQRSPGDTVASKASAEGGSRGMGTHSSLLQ

Compound	pIC50
COc1cc(OCC2CCN(c3ccc(C#N)cc3)CC2)c2cc(-c3cn4nc(OC)sc4n3)oc2c1 [Example 48]	5.96
COc1cc(OCC2CCN(c3ccc(Cl)cc3)CC2)c2cc(-c3cn4nc(OC)sc4n3)oc2c1 [Example 49]	5.57
COc1cc(OCC2CCN(c3ccc(F)cc3)CC2)c2cc(-c3cn4nc(OC)sc4n3)oc2c1 [Example 50]	5.32
COc1cc(OCC2CCN(c3ccccc3)CC2)c2cc(-c3cn4nc(OC)sc4n3)oc2c1 [Example 51]	5.30
COc1cc(OC[C@H]2CCCN(c3ccc(F)cc3)C2)c2cc(-c3cn4nc(OC)sc4n3)oc2c1 [Example 52]	5.96
COc1cc(OC[C@@H]2CCCN(c3ccccc3)C2)c2cc(-c3cn4nc(OC)sc4n3)oc2c1 [Example 53]	5.74
COc1cc(OC[C@H]2CCCN(c3ccccc3)C2)c2cc(-c3cn4nc(OC)sc4n3)oc2c1 [Example 54]	5.85
COc1cc(OCC2CCCCN2c2ccc(Cl)cc2)c2cc(-c3cn4nc(OC)sc4n3)oc2c1 (stereo not shown) [Example 55]	6.14
COc1cc(OCC2CCCCN2c2ccc(Cl)cc2)c2cc(-c3cn4nc(OC)sc4n3)oc2c1 (stereo not shown) [Example 57]	6.13
COc1cc(OC[C@H]2CCCN(Cc3ccc(Cl)cc3)C2)c2cc(-c3cn4nc(OC)sc4n3)oc2c1 [Example 58]	5.85
COc1cc(OC[C@H]2CCCN(C(=O)OCc3ccccc3)C2)c2cc(-c3cn4nc(OC)sc4n3)oc2c1 [Example 59]	5.92
COc1cc(OCC2CCCN(c3nncs3)C2)c2cc(-c3cn4nc(OC)sc4n3)oc2c1 (stereo not shown) [Example 60]	5.57
CCOC(=O)c1cnc(N2CCCC(COc3cc(OC)cc4oc(-c5cn6nc(OC)sc6n5)cc34)C2)s1 (stereo not shown) [Example 61]	5.82
COc1cc(OCC2CCCN(c3ncc(Br)s3)C2)c2cc(-c3cn4nc(OC)sc4n3)oc2c1 (stereo not shown) [Example 62]	5.72
COc1cc(OCC2CCCN(c3ccc(Cl)cn3)C2)c2cc(-c3cn4nc(OC)sc4n3)oc2c1 (stereo not shown) [Example 63]	6.07
COc1cc(OCC2CCCN(c3ccc(Cl)cn3)C2)c2cc(-c3cn4nc(OC)sc4n3)oc2c1 (stereo not shown) [Example 64]	6.09
COc1cc(OCC2CCCN(c3ncc(Br)cn3)C2)c2cc(-c3cn4nc(OC)sc4n3)oc2c1 (stereo not shown) [Example 66]	5.85
COc1cc(OCC2CCC(=O)N(c3ccc(Cl)cc3)C2)c2cc(-c3cn4nc(OC)sc4n3)oc2c1 (stereo not shown) [Example 67]	5.48
COc1cc(OCC2CCCN(c3ccc(NC(=O)OC(C)(C)C)cc3)C2)c2cc(-c3cn4nc(OC)sc4n3)oc2c1 (stereo not shown) [Example 68]	5.68
COc1cc(OCC2CCCN(c3ccc(NC(=O)OC(C)(C)C)nc3)C2)c2cc(-c3cn4nc(OC)sc4n3)oc2c1 (stereo not shown) [Example 69]	5.49
COc1ccc(COc2ccc(N3CCCC(COc4cc(OC)cc5oc(-c6cn7nc(OC)sc7n6)cc45)C3)cc2)cc1 (stereo not shown) [Example 70]	5.46
COc1cc(OCC2CCCN(c3ccc(NC(=O)C(F)(F)F)nc3)C2)c2cc(-c3cn4nc(OC)sc4n3)oc2c1 (stereo not shown) [Example 71]	5.89
COc1cc(OC[C@@H]2CCCN(c3ccc(F)cc3)C2)c2cc(-c3cn4nc(OC)sc4n3)oc2c1 [Example 72]	5.85
COc1cc(OCC2CCCN(C3CCOCC3)C2)c2cc(-c3cn4nc(OC)sc4n3)oc2c1 (stereo not shown) [Example 73]	4.33
COc1cc(OCC2CCCN(c3ccc(N)nc3)C2)c2cc(-c3cn4nc(OC)sc4n3)oc2c1 (stereo not shown) [Example 74]	4.55
